US11377442B2, “Small molecule agonists and antagonists of NR2F6 activity” (ZANDER THERAPEUTICS, INC., priority 2016, dated 2022)
Like-named read-outs stand apart in the source and are kept apart here.

Legend:
Type in all cases: cell-based
Renilla = Renilla signal in NR2F6 agonist screening, cmpd/DMSO; details: for fold induction at 2 µM / fold induction at 10 µM / fold induction at 40 µM: Renilla, read-out: Renilla F4, cmpd/DMSO (mean)
ERα [1] = target: T1, ERα (Homo sapiens, UniProt P03372); test: Counterscreening, Firefly signal with ERα transient transfection (Firefly_ERa); details: 10 uM
T1 construct: expressed in transfected cells
T1 sequence (P03372 1-595): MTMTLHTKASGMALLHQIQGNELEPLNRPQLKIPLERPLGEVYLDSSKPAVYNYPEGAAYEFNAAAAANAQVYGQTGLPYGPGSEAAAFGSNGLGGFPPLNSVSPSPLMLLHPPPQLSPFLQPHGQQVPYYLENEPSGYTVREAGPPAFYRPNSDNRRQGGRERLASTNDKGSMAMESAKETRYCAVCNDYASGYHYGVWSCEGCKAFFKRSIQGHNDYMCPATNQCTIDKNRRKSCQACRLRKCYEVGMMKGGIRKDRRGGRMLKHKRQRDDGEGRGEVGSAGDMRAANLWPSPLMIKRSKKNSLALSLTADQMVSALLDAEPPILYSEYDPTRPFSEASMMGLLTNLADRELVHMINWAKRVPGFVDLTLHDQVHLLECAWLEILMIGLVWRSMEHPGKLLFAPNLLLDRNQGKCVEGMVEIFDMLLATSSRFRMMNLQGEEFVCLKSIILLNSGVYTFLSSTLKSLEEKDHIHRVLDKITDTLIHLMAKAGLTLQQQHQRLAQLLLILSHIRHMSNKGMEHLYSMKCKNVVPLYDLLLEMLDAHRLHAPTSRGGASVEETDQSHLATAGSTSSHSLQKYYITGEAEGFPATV
Method: The methodology for screening candidate compounds as NR2F6 agonists was as follows: For primary screening, hit criteria was ACT %>DMSO control+5*SD (DSO control) at 10 μM, or any compound with S/B>2. For rescreening, hit criteria was ACT %>DMSO control+3*SD (DSO control) in each replicate at 10 μM. For counterscreening, hit criteria was mean ACT<DMSO control+3*SD (DMSO control) with ERα transient transfection in duplicate at 10 μM.

NR2F6 = target: T2, NR2F6 (Homo sapiens, UniProt P10588); test: NR2F6 agonist screening, Firefly signal cmpd/DMSO
T2 construct: expressed in transfected cells; also transient transfection
T2 sequence (P10588 1-404): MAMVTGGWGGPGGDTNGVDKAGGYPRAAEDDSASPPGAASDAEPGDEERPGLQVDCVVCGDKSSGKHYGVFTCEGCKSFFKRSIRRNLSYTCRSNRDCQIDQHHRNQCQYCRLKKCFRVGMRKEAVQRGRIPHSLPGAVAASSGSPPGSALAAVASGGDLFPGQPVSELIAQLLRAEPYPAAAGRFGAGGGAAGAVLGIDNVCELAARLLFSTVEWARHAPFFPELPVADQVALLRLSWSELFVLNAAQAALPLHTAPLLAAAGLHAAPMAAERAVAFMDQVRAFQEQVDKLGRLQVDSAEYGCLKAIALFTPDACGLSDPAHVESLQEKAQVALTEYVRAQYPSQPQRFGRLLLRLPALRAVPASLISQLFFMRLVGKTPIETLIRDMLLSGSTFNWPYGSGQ

Renilla_ERa = test: Renilla signal in ERα counterscreen (Renilla_ERa); details: for fold induction at 2 µM / fold induction at 10 µM / fold induction at 40 µM: read-out: Renilla ERalpha transient, cmpd/DMSO (mean)
ERα [2] = target: T1, ERα; test: Counterscreening, Firefly signal with ERα transient transfection (Firefly_ERa)

| SMILES | Firefly ERalpha transient, cmpd/DMSO (mean) (ERα [1]) | Firefly F4, cmpd/DMSO (mean) (NR2F6; 2 uM, clone F4) | Firefly F4, cmpd/DMSO (mean) (NR2F6; 10 uM, clone F4) | Firefly F4, cmpd/DMSO (mean) (NR2F6; 40 uM, clone F4) | Firefly ERalpha transient, cmpd/DMSO (mean) (ERα [2]; 2 uM) | Firefly ERalpha transient, cmpd/DMSO (mean) (ERα [2]; 40 uM) | fold induction at 2 µM (Renilla; 2 uM, clone F4) | fold induction at 10 µM (Renilla; 10 uM, clone F4) | fold induction at 40 µM (Renilla; 40 uM, clone F4) | fold induction at 2 µM (Renilla_ERa; 2 uM) | fold induction at 10 µM (Renilla_ERa; 10 uM) | fold induction at 40 µM (Renilla_ERa; 40 uM) | also measured |
| --- | --- | --- | --- | --- | --- | --- | --- | --- | --- | --- | --- | --- | --- |
| COc1cccc(-c2noc(Cn3ncc4ccccc4c3=O)n2)c1 [Compound Z6] |  |  |  |  |  |  |  |  |  |  |  |  | Renilla F4, cmpd/DMSO (mean) (Renilla; Table 15, 2 uM): 1.1; Renilla F4, cmpd/DMSO (mean) (Renilla; Table 15, 10 uM): 1.1; Renilla F4, cmpd/DMSO (mean) (Renilla; Table 15, 40 uM): 0.9; Firefly ERalpha transient, cmpd/DMSO (mean) (ERα [1]; Table 15): 2.2; Firefly F4, cmpd/DMSO (mean) (NR2F6; Table 15, 2 uM): 1.4; Firefly F4, cmpd/DMSO (mean) (NR2F6; Table 15, 10 uM): 1.4; Firefly F4, cmpd/DMSO (mean) (NR2F6; Table 15, 40 uM): 1.1; Renilla ERalpha transient, cmpd/DMSO (mean) (Renilla_ERa; Table 15, 2 uM): 1.1; Renilla ERalpha transient, cmpd/DMSO (mean) (Renilla_ERa; Table 15, 10 uM): 1.1; Renilla ERalpha transient, cmpd/DMSO (mean) (Renilla_ERa; Table 15, 40 uM): 0.9; Firefly ERalpha transient, cmpd/DMSO (mean) (ERα [2]; Table 15, 2 uM): 2.0; Firefly ERalpha transient, cmpd/DMSO (mean) (ERα [2]; Table 15, 40 uM): 1.1 |
| CC(=O)Nc1ccc(Br)c2nonc12 [Compound Z14] |  |  |  |  |  |  |  |  |  |  |  |  | fold induction at 2 µM (Renilla; Table 15, 2 uM): 0.8; fold induction at 10 µM (Renilla; Table 15, 10 uM): 0.9; fold induction at 40 µM (Renilla; Table 15, 40 uM): 1; Firefly ERalpha transient, cmpd/DMSO (mean) (ERα [1]; Table 15): 1.2; Firefly F4, cmpd/DMSO (mean) (NR2F6; Table 15, 2 uM): 1.2; Firefly F4, cmpd/DMSO (mean) (NR2F6; Table 15, 10 uM): 0.8; Firefly F4, cmpd/DMSO (mean) (NR2F6; Table 15, 40 uM): 1.2; fold induction at 2 µM (Renilla_ERa; Table 15, 2 uM): 1.1; fold induction at 10 µM (Renilla_ERa; Table 15, 10 uM): 1.1; fold induction at 40 µM (Renilla_ERa; Table 15, 40 uM): 1; Firefly ERalpha transient, cmpd/DMSO (mean) (ERα [2]; Table 15, 2 uM): 1.0; Firefly ERalpha transient, cmpd/DMSO (mean) (ERα [2]; Table 15, 40 uM): 1.0 |
| Cc1cc(C)c2ncc(C(=O)N3CCCC3)c(NCCCN(C)C)c2c1 [Compound Z32] | 0.8 | 1.8 | 0.9 | 1.5 | 1.8 | 1.5 | 1 | 1 | 1.3 | 1 | 1.1 | 0.8 |  |
| O=c1cccc2n1CCN(c1nc(NCC3CCCO3)nc(N3CCOCC3)n1)C2 (stereo not drawn) [Compound 33] | 1.3 | 0.8 | 1.0 | 1.1 | 1.3 | 1.4 |  |  |  |  |  |  | Renilla F4, cmpd/DMSO (mean) (Renilla; 2 uM, clone F4): 1.2; Renilla F4, cmpd/DMSO (mean) (Renilla; 10 uM, clone F4): 1.3; Renilla F4, cmpd/DMSO (mean) (Renilla; 40 uM, clone F4): 1.4; Renilla ERalpha transient, cmpd/DMSO (mean) (Renilla_ERa; 2 uM): 1.2; Renilla ERalpha transient, cmpd/DMSO (mean) (Renilla_ERa; 10 uM): 1.1; Renilla ERalpha transient, cmpd/DMSO (mean) (Renilla_ERa; 40 uM): 1.3 |
| COc1ccc2nc(C(F)(F)F)c(C#N)c(NCc3ccc(Cl)cc3)c2c1 [Compound Z38] | 0.5 | 0.5 | 0.8 | 0.6 | 0.9 | 0.5 | 0.7 | 0.6 | 0.4 | 0.9 | 0.6 | 0.6 |  |
| O=c1cccc2n1CCN(c1nc(NCC3CCCO3)nc(N3CCCC3)n1)C2 (stereo not drawn) [Compound 42] | 1.0 | 1.6 | 0.8 | 0.9 | 2.3 | 1.0 |  |  |  |  |  |  | Renilla F4, cmpd/DMSO (mean) (Renilla; 2 uM, clone F4): 0.7; Renilla F4, cmpd/DMSO (mean) (Renilla; 10 uM, clone F4): 0.8; Renilla F4, cmpd/DMSO (mean) (Renilla; 40 uM, clone F4): 1.1; Renilla ERalpha transient, cmpd/DMSO (mean) (Renilla_ERa; 2 uM): 0.9; Renilla ERalpha transient, cmpd/DMSO (mean) (Renilla_ERa; 10 uM): 1.0; Renilla ERalpha transient, cmpd/DMSO (mean) (Renilla_ERa; 40 uM): 1.0 |
| CNc1c(C#N)c(C(F)(F)F)nc2ccc(Oc3ccccc3)cc12 [Compound Z53] | 0.3 | 0.8 | 0.4 | 0.5 | 1.0 | 0.4 | 0.7 | 0.7 | 0.6 | 1 | 0.6 | 0.5 |  |
| O=c1cccc2n1CC1CC2CN(c2nc(Cl)nc(NCCN3CCOCC3)n2)C1 (stereo not drawn) [Compound 27] | 1.2 | 1.0 | 1.0 | 1.0 | 1.2 | 1.2 | 0.9 | 0.9 | 0.8 | 1.1 | 1.1 | 1.2 |  |
| CCCCCCNc1nc(OC)nc(N2CCn3c(cccc3=O)C2)n1 [Compound 41] | 1.5 | 0.8 | 0.9 | 0.9 | 1.5 | 1.4 |  |  |  |  |  |  | Renilla F4, cmpd/DMSO (mean) (Renilla; 2 uM, clone F4): 1.1; Renilla F4, cmpd/DMSO (mean) (Renilla; 10 uM, clone F4): 1.1; Renilla F4, cmpd/DMSO (mean) (Renilla; 40 uM, clone F4): 1.1; Renilla ERalpha transient, cmpd/DMSO (mean) (Renilla_ERa; 2 uM): 1.2; Renilla ERalpha transient, cmpd/DMSO (mean) (Renilla_ERa; 10 uM): 1.2; Renilla ERalpha transient, cmpd/DMSO (mean) (Renilla_ERa; 40 uM): 1.1 |
| COc1ccc(-c2noc(Cn3ncc4ccccc4c3=O)n2)cc1 [Compound Z7] |  |  |  |  |  |  |  |  |  |  |  |  | fold induction at 2 µM (Renilla; Table 15, 2 uM): 1.3; fold induction at 10 µM (Renilla; Table 15, 10 uM): 1.1; fold induction at 40 µM (Renilla; Table 15, 40 uM): 1.1; Firefly ERalpha transient, cmpd/DMSO (mean) (ERα [1]; Table 15): 2.0; Firefly F4, cmpd/DMSO (mean) (NR2F6; Table 15, 2 uM): 0.9; Firefly F4, cmpd/DMSO (mean) (NR2F6; Table 15, 10 uM): 1.2; Firefly F4, cmpd/DMSO (mean) (NR2F6; Table 15, 40 uM): 1.0; fold induction at 2 µM (Renilla_ERa; Table 15, 2 uM): 1.1; fold induction at 10 µM (Renilla_ERa; Table 15, 10 uM): 1.1; fold induction at 40 µM (Renilla_ERa; Table 15, 40 uM): 1; Firefly ERalpha transient, cmpd/DMSO (mean) (ERα [2]; Table 15, 2 uM): 1.3; Firefly ERalpha transient, cmpd/DMSO (mean) (ERα [2]; Table 15, 40 uM): 1.5 |

Continued, in another order:

| Firefly ERalpha transient, cmpd/DMSO (mean) (ERα [1]) | Firefly F4, cmpd/DMSO (mean) (NR2F6; 2 uM, clone F4) | Firefly F4, cmpd/DMSO (mean) (NR2F6; 10 uM, clone F4) | Firefly F4, cmpd/DMSO (mean) (NR2F6; 40 uM, clone F4) | Firefly ERalpha transient, cmpd/DMSO (mean) (ERα [2]; 2 uM) | Firefly ERalpha transient, cmpd/DMSO (mean) (ERα [2]; 40 uM) | SMILES | fold induction at 2 µM (Renilla; 2 uM, clone F4) | fold induction at 10 µM (Renilla; 10 uM, clone F4) | fold induction at 40 µM (Renilla; 40 uM, clone F4) | fold induction at 2 µM (Renilla_ERa; 2 uM) | fold induction at 10 µM (Renilla_ERa; 10 uM) | fold induction at 40 µM (Renilla_ERa; 40 uM) | also measured |
| --- | --- | --- | --- | --- | --- | --- | --- | --- | --- | --- | --- | --- | --- |
| 1.1 | 1.4 | 1.1 | 1.2 | 1.4 | 1.4 | CNC(=O)c1cnc2c(C)cc(C)cc2c1NCCCN(C)C [Compound Z30] | 1.1 | 1.1 | 0.7 | 1.1 | 1.1 | 1.6 |  |
| 0.8 | 0.6 | 0.8 | 0.6 | 0.9 | 0.6 | COC(=O)CNc1c(C#N)c(C(F)(F)F)nc2ccc(OC)cc12 [Compound Z46] | 0.9 | 0.8 | 0.6 | 0.9 | 1 | 1 |  |
| 0.5 | 1.2 | 0.9 | 0.6 | 1.0 | 0.6 | CCOC(=O)Cc1sc(Nc2nc(C)cc(C)n2)nc1-c1ccccc1 [Compound 28] | 1.1 | 0.8 | 0.6 | 1.2 | 0.8 | 0.7 |  |
